Experiments:
Type in all cases: biochemical
p38δ = target: T1, p38δ (Homo sapiens, UniProt O15264); assay: mobility shift assay
T1 construct: purchased Carna Biosciences

EPHA4 = target: T2, EPHA4 (Homo sapiens, UniProt P54764); assay: mobility shift assay
T2 construct: purchased Carna Biosciences

KIT = target: T3, KIT (Homo sapiens, UniProt P10721); assay: mobility shift assay
T3 construct: purchased Carna Biosciences

EGFR(d746-750/T790M) = target: T4, EGFR(d746-750/T790M) (Homo sapiens, UniProt P00533, DEL746-750/T790M); assay: mobility shift assay
T4 construct: purchased Carna Biosciences

ABL(T315I) = target: T5, ABL(T315I) (Homo sapiens, UniProt P00519, T315I); assay: mobility shift assay
T5 construct: purchased Carna Biosciences

PKN1 = target: T6, PKN1 (Homo sapiens, UniProt Q16512); assay: IMAP Assay
T6 construct: purchased Carna Biosciences
T6 sequence (Q16512 whole entry): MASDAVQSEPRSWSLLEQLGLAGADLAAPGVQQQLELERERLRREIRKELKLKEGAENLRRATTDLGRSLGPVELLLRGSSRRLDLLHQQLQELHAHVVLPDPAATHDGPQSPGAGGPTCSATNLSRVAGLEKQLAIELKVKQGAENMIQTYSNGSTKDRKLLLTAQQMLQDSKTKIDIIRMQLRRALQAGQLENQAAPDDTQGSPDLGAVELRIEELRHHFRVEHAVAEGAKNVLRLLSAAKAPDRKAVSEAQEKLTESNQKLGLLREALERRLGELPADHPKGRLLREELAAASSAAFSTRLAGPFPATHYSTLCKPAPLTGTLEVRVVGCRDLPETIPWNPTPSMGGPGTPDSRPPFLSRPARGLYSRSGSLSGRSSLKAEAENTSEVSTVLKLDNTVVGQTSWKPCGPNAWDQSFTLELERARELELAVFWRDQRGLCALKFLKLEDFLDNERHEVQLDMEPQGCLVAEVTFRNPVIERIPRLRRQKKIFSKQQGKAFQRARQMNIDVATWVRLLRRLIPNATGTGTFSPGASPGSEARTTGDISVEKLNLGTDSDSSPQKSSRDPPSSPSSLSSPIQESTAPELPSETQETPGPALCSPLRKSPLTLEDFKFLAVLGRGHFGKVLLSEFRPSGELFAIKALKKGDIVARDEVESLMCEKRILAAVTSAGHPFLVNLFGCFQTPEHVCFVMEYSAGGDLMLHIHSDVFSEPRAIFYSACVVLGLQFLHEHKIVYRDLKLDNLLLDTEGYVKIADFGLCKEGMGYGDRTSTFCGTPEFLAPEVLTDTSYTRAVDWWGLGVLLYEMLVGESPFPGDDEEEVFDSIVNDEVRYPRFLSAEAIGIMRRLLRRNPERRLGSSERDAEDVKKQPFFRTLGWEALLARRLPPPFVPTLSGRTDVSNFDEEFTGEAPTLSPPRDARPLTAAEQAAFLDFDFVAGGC

MNK2 = target: T7, MNK2 (Homo sapiens, UniProt Q9HBH9); assay: mobility shift assay
T7 construct: purchased Carna Biosciences

Erk5 = target: T8, Erk5 (Homo sapiens, UniProt Q13164); assay: mobility shift assay
T8 construct: purchased Carna Biosciences
T8 sequence (Q13164 whole entry): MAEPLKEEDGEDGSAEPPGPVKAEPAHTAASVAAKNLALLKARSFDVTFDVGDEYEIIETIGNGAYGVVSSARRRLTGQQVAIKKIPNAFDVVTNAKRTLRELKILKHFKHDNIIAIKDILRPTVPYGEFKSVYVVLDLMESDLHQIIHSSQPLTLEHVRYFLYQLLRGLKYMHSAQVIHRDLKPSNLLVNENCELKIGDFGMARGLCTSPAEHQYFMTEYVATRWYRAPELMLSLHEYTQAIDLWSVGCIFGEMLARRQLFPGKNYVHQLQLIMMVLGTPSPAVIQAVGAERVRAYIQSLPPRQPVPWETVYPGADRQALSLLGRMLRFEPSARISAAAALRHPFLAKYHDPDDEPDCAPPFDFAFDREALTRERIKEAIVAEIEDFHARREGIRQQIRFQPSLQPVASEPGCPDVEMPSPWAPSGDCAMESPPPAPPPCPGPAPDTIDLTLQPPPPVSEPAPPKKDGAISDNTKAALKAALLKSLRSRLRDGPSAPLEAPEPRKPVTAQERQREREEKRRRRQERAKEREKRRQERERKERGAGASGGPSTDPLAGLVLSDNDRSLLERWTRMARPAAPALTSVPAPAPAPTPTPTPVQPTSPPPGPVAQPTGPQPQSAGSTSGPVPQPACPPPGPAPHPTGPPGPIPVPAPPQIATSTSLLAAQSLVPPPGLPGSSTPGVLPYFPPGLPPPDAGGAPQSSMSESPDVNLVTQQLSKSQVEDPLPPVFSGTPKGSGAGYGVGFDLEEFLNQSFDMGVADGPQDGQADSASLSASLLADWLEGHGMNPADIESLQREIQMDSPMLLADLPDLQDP

p38γ = target: T9, p38γ (Homo sapiens, UniProt P53778); assay: mobility shift assay
T9 construct: purchased Carna Biosciences

ALK(F1174L) = target: T10, ALK(F1174L) (Homo sapiens, UniProt Q9UM73, F1174L); assay: mobility shift assay
T10 construct: purchased Carna Biosciences

MAP3K5_Cascade = target: T11, MAP3K5_Cascade (Homo sapiens, UniProt Q99683); assay: mobility shift assay
T11 construct: purchased Carna Biosciences

CDK2/CycE1 = target: T12, CDK2/CycE1 (Homo sapiens, UniProt P24941); assay: mobility shift assay
T12 construct: purchased Carna Biosciences

NDR1 = target: T13, NDR1 (Homo sapiens, UniProt Q15208); assay: mobility shift assay
T13 construct: purchased Carna Biosciences

COK6/CycD3 = target: T14, COK6/CycD3 (Homo sapiens, UniProt Q00534); assay: mobility shift assay
T14 construct: purchased Carna Biosciences
T14 sequence (Q00534 whole entry): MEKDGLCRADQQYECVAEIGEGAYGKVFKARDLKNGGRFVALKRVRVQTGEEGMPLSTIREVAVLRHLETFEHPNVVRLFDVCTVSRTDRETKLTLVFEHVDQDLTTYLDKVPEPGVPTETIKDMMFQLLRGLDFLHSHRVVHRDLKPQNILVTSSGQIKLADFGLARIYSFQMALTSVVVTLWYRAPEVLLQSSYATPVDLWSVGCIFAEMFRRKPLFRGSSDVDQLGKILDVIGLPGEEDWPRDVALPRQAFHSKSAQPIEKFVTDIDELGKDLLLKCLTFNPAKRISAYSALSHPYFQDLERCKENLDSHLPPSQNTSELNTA
T14 sequence (P30281 whole entry partner): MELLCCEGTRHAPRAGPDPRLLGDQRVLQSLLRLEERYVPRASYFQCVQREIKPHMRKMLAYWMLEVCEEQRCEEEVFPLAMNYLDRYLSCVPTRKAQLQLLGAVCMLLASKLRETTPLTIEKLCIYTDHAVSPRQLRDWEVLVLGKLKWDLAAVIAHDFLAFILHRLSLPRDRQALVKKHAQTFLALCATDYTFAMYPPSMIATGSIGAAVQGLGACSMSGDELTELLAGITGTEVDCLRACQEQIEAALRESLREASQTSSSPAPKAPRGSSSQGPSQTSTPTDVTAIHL

ARG = target: T15, ARG (Homo sapiens, UniProt P42684); assay: mobility shift assay
T15 construct: purchased Carna Biosciences

MER = target: T16, MER (Homo sapiens, UniProt Q12866); assay: mobility shift assay
T16 construct: purchased Carna Biosciences

p70S6Kβ = target: T17, p70S6Kβ (Homo sapiens, UniProt Q9UBS0); assay: mobility shift assay
T17 construct: purchased Carna Biosciences

EPHA3 = target: T18, EPHA3 (Homo sapiens, UniProt P29320); assay: mobility shift assay
T18 construct: purchased Carna Biosciences

EGFR(L858R) = target: T19, EGFR(L858R) (Homo sapiens, UniProt P00533, L858R); assay: mobility shift assay
T19 construct: purchased Carna Biosciences
T19 sequence (P00533 25-1210 L858R): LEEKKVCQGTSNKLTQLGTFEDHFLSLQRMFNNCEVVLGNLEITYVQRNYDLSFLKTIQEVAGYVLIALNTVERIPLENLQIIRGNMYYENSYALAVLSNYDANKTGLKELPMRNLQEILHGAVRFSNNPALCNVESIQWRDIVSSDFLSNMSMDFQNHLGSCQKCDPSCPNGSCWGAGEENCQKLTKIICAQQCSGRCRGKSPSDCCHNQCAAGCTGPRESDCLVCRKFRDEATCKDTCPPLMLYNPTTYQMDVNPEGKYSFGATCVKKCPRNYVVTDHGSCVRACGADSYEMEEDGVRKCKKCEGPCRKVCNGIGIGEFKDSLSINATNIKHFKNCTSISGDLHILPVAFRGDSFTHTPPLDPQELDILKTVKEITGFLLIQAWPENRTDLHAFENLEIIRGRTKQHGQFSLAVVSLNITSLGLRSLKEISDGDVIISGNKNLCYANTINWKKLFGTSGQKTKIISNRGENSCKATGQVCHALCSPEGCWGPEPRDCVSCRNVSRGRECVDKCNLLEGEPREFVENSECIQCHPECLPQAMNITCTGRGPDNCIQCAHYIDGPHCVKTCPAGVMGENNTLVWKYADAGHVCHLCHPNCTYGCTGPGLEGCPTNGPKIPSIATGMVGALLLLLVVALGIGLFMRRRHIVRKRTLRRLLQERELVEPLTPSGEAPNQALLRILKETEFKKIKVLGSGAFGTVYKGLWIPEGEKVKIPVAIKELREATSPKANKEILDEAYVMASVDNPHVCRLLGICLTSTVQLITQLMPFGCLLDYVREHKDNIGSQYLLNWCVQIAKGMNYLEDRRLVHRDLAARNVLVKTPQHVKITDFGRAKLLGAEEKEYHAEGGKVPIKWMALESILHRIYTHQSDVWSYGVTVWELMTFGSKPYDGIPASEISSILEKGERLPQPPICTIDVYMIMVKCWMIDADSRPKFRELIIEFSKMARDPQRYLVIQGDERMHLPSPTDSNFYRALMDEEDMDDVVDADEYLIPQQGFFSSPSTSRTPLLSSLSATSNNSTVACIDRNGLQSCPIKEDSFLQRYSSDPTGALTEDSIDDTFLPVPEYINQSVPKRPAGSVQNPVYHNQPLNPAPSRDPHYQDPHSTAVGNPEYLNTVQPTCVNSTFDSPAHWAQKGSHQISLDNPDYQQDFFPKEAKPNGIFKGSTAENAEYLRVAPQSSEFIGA

CGK2 = target: T20, CGK2 (Homo sapiens, UniProt Q13237); assay: mobility shift assay
T20 construct: purchased Carna Biosciences
T20 sequence (Q13237 whole entry): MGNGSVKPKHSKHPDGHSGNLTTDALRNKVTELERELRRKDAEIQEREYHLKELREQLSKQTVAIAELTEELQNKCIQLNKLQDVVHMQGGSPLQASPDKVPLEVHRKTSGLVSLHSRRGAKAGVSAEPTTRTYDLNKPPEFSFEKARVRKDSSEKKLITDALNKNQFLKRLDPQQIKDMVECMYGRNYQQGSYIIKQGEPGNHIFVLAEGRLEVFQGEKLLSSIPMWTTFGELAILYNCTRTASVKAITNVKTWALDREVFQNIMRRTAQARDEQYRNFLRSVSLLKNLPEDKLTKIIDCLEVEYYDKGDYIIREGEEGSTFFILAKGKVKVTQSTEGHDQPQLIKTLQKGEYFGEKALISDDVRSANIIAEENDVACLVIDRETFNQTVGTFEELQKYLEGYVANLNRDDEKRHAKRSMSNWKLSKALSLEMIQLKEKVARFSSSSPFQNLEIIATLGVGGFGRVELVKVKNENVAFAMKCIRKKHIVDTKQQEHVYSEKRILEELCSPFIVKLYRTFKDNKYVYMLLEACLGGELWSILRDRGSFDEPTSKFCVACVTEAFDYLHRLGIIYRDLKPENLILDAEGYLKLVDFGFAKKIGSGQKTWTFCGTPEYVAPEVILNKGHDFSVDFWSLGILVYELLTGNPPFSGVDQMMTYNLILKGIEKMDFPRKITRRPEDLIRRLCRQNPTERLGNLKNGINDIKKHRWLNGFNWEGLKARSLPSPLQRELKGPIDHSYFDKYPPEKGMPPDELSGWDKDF

MARK1 = target: T21, MARK1 (Homo sapiens, UniProt Q9P0L2); assay: mobility shift assay
T21 construct: purchased Carna Biosciences

CLK1 = target: T22, CLK1 (Homo sapiens, UniProt P49759); assay: mobility shift assay
T22 construct: purchased Carna Biosciences

FYN(isoform a) = target: T23, FYN(isoform a) (Homo sapiens, UniProt P06241); assay: mobility shift assay
T23 construct: purchased Carna Biosciences

FLT3 = target: T24, FLT3 (Homo sapiens, UniProt P36888); assay: mobility shift assay
T24 construct: purchased Carna Biosciences

MAPXK2 Cascade = assay: mobility shift assay; conditions: 10 μM
BTK = target: T25, BTK (Homo sapiens, UniProt Q06187); assay: mobility shift assay
T25 construct: purchased Carna Biosciences
T25 sequence (Q06187 whole entry): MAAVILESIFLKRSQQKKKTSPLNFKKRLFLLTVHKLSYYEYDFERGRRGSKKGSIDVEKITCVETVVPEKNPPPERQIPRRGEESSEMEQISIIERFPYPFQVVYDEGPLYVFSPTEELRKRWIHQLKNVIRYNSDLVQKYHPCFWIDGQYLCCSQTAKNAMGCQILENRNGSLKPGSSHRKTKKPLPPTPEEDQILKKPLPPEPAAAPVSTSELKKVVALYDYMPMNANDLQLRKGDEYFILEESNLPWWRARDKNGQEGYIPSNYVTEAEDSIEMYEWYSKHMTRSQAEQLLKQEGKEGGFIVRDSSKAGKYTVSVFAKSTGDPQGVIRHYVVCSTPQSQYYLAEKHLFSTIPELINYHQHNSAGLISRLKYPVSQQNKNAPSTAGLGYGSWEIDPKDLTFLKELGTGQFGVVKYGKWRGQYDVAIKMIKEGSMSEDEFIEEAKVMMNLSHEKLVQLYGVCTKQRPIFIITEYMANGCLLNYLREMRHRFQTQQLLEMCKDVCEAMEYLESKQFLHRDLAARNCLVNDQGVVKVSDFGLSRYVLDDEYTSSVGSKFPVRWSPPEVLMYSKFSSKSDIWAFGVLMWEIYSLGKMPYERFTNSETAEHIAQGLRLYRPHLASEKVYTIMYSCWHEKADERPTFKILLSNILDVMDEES

YES = target: T26, YES (Homo sapiens, UniProt P07947); assay: mobility shift assay
T26 construct: purchased Carna Biosciences

CK2α2/β = target: T27, CK2α2/β (Homo sapiens, UniProt P19784); assay: mobility shift assay
T27 construct: purchased Carna Biosciences

CaMK4 = target: T28, CaMK4 (Homo sapiens, UniProt Q16566); assay: mobility shift assay
T28 construct: purchased Carna Biosciences

CK1ε = target: T29, CK1ε (Homo sapiens, UniProt P49674); assay: mobility shift assay
T29 construct: purchased Carna Biosciences

BMX = target: T30, BMX (Homo sapiens, UniProt P51813); assay: mobility shift assay
T30 construct: purchased Carna Biosciences

CKIα = target: T31, CKIα (Homo sapiens, UniProt P48729); assay: mobility shift assay
T31 construct: purchased Carna Biosciences

EGFR(L861Q) = target: T32, EGFR(L861Q) (Homo sapiens, UniProt P00533, L861Q); assay: mobility shift assay
T32 construct: purchased Carna Biosciences

CDK4/CycD3 = CDK4/CycD3 (Homo sapiens, UniProt P11802); assay: IC50 by mobility shift assay; conditions: Table 3, CDK4, mobility shift assay; read-out: IC50 (μM), Kinase CDK4/CycD3
Text: Next, the compounds produced in Production Examples described above were each assessed for its inhibitory activity against CDK4 by mobility shift assay. In addition, a combination showing the highest inhibitory activity is indicated by italics.

ALK(C1156Y) = target: T33, ALK(C1156Y) (Homo sapiens, UniProt Q9UM73, C1156Y); assay: mobility shift assay
T33 construct: purchased Carna Biosciences

PKCβ1 = target: T34, PKCβ1 (Homo sapiens, UniProt P05771); assay: mobility shift assay
T34 construct: purchased Carna Biosciences

AMPKα1/β1/γ1 = target: T35, AMPKα1/β1/γ1 (Homo sapiens, UniProt Q13131); assay: mobility shift assay
T35 construct: purchased Carna Biosciences

BRAF(V600E)_Cascade = target: T36, BRAF(V600E)_Cascade (Homo sapiens, UniProt P15056, V600E); assay: mobility shift assay
T36 construct: purchased Carna Biosciences

MAP2K3_Cascade = target: T37, MAP2K3_Cascade (Homo sapiens, UniProt P46734); assay: mobility shift assay
T37 construct: purchased Carna Biosciences

**Q.** For `C[C@@H]1CC[C@H]2C(C)(C)CCC[C@]2(C)c2c1oc1c(C=O)c(O)c(O)cc21` [LG-1, liphagal], which inhibition at 10 µM (p38δ) is on record?
**A.** -0.1%

**Q.** What about the inhibition at 10 µM (EPHA4) of the same molecule?
**A.** 2%

**Q.** What about the inhibition at 10 µM (KIT) of the same molecule?
**A.** 6%

**Q.** And the inhibition at 10 µM (EGFR(d746-750/T790M))?
**A.** 2.5%

**Q.** What about the inhibition at 10 µM (ABL(T315I)) of the same molecule?
**A.** 6.1%

**Q.** What about the inhibition at 10 µM (PKN1) of the same molecule?
**A.** 5.3%

**Q.** And the inhibition at 10 µM (MNK2)?
**A.** 5.9%

**Q.** And the inhibition at 10 µM (Erk5)?
**A.** 0.6%

**Q.** What about the inhibition at 10 µM (p38γ) of the same molecule?
**A.** -5.6%

**Q.** And the inhibition at 10 µM (ALK(F1174L))?
**A.** -1.8%

**Q.** What about the inhibition at 10 µM (MAP3K5_Cascade) of the same molecule?
**A.** 38%

**Q.** What about the inhibition at 10 µM (CDK2/CycE1) of the same molecule?
**A.** 6.9%

**Q.** And the inhibition at 10 µM (NDR1)?
**A.** 2.6%

**Q.** What about the inhibition at 10 µM (COK6/CycD3; COK6/CycD3) of the same molecule?
**A.** 72.7%

**Q.** What about the “inhibitory activity against CDK6” value (COK6/CycD3; in words, 10 μM) of the same molecule?
**A.** Potent inhibitory activity

**Q.** And the inhibition at 10 µM (ARG)?
**A.** 1.4%

**Q.** And the inhibition at 10 µM (MER)?
**A.** 2.1%

**Q.** And the inhibition at 10 µM (p70S6Kβ)?
**A.** 26.4%

**Q.** What about the inhibition at 10 µM (EPHA3) of the same molecule?
**A.** -2.8%

**Q.** What about the inhibition at 10 µM (EGFR(L858R)) of the same molecule?
**A.** 4.2%

**Q.** And the inhibition at 10 µM (CGK2)?
**A.** 7.3%

**Q.** And the inhibition at 10 µM (MARK1)?
**A.** -3.5%

**Q.** And the inhibition at 10 µM (CLK1)?
**A.** 30.1%

**Q.** What about the inhibition at 10 µM (FYN(isoform a)) of the same molecule?
**A.** 0.5%

**Q.** What about the inhibition at 10 µM (FLT3) of the same molecule?
**A.** 2.1%

**Q.** And the “% Inhibition” value (MAPXK2 Cascade)?
**A.** 2.7%

**Q.** And the inhibition at 10 µM (BTK)?
**A.** 10.3%

**Q.** What about the inhibition at 10 µM (YES) of the same molecule?
**A.** 0.7%

**Q.** What about the inhibition at 10 µM (CK2α2/β) of the same molecule?
**A.** 9%

**Q.** What about the inhibition at 10 µM (CaMK4) of the same molecule?
**A.** 51.4%

**Q.** And the inhibition at 10 µM (CK1ε)?
**A.** 37.7%

**Q.** And the inhibition at 10 µM (BMX)?
**A.** 6.5%

**Q.** What about the inhibition at 10 µM (CKIα) of the same molecule?
**A.** 20.5%

**Q.** And the inhibition at 10 µM (EGFR(L861Q))?
**A.** 1.5%

**Q.** What about the IC50 (CDK4/CycD3) of the same molecule?
**A.** 19.9 µM

**Q.** And the inhibition at 10 µM (ALK(C1156Y))?
**A.** 0.2%

**Q.** And the inhibition at 10 µM (PKCβ1)?
**A.** -18%

**Q.** What about the inhibition at 10 µM (AMPKα1/β1/γ1) of the same molecule?
**A.** 19.9%

**Q.** And the inhibition at 10 µM (BRAF(V600E)_Cascade)?
**A.** 19.5%

**Q.** What about the inhibition at 10 µM (MAP2K3_Cascade) of the same molecule?
**A.** 25.6%

— patent publication US11691980B2, “Liphagal analog and multi-targeted kinase inhibitor containing liphagal or analog thereof” (TOHOKU UNIVERSITY, priority 2017, dated 2023)
